Data on six compounds can be found in patent publication US6656729B2, “Compositions which inhibit apoptosis, methods of purifying the compositions and uses thereof” (Sky High, LLC, priority 1993, dated 2003).

This assay has as its system C3H 10T1/2 cells. In words: Apoptosis assay with C3H 10T1/2 cells (serum deprivation). In kind it is cell-based. The settings on record: for ACTIVITY (anti-apoptotic activity of known phospholipids): serum-deprived 10T½ cells, dissolved at 10 mM (100× test concentration), pre-incubation in 1% BSA, final BSA ≦0.01%. The protocol:
In order to determine the apoptotic activity of the PAIs, the following experiment was performed. […] Exponential growth phase was assured by seeding at 2000 cells per 1 ml (5 ml for a 60 mm culture plate) five days prior to the beginning of the experiment. At T=0, cultures were transferred to serum-free medium, as an apoptosis stimulus, and seed extracts were added. Controls included 10^−7 M 12-O-tetradecanoyl phorbol-13-acetate (TPA) to ensure the responsiveness of the cell culture. The PAI samples prepared by extraction with ethanol and by gel filtration were added to serum free medium at 0.1 g dry weight equivalents and sterile filtered prior to addition to the cultures. Assays were performed in triplicate or quadruplicate. Analyses of the cell responses were made after between 22 and 28 hours of serum deprivation and/or treatment with soy flour derived PAIs. Two assays were performed on each cell culture plate consisting of differential cell counts.
1. All non-adherent or loosely adherent cells were removed from the culture dish and counted by appropriate techniques, typically counting by electric particle counting instrument. These are the apoptotic cells, the serum deprived released cells (SDR), released by the action of cultivation in serum-free medium.
2. The remaining adherent cells (ADH) are exposed to a buffered, typically pH 7.3, balanced salt solution such as Hanks Balanced Salt Solution without calcium and magnesium salts containing 0.05% trypsin and 0.53 mM ethylenediaminetetraacetic acid (EDTA). Each culture is incubated at either room temperature or 37° C. on a rocking platform to ensure uniform distribution of the trypsin reagent over the culture surface. After a standardized period of time, typically 10 minutes, the released cells are removed from each culture dish and measured by the same means as described above, typically electronic particle counting.
All commercial samples were dissolved at a concentration of 10 mM (100× test concentration) in 1% bovine serum albumin (BSA), 0.5 mM calcium chloride, 0.5 mM magnesium chloride, at room temperature. All compounds were tested after pre-incubation in 1% BSA. The final concentration of BSA in the apoptosis was ≦0.01%. […] All tested compounds were obtained from Sigma. The BSA was obtained from Boehringer Mannheim.

Turning to L-a-lysophosphatidyl ethanolamine, the “ACTIVITY (anti-apoptotic activity of known phospholipids)” value was 0.

In the case of “L-a-phosphatidyl choline [L-a-phosphatidyl choline Type V-EA]”, the “ACTIVITY (anti-apoptotic activity of known phospholipids)” value is on record as 0.

On to `CCCCCCCC/C=C\CCCCCCCC(=O)OC[C@@H](O)COP(=O)(O)O` (stereo in doubt) [L-a-lysophosphatidic acid, oleoyl (C18:1, [cis]-9)], for which the “ACTIVITY (anti-apoptotic activity of known phospholipids)” value is listed as “++”. The “Anti-apoptotic activity (in words)” value (in the presence of Bowman-Birk inhibitors) was “does not confer anti-apoptotic activity”. Moreover, the “Anti-apoptotic activity (in words)” value (in the presence of a protein or proteins to which it specifically binds (serum albumin)) was “possess anti-apoptotic activity”. For the same compound, the “Anti-apoptotic activity (in words)” value (in the presence of fraction B) is reported as “possessed anti-apoptotic activity”. For the setting “pre-incubation with BSA (FIG. 14)”, the “Effect of pre-incubation on anti-apoptotic activity” value is recorded as “enhanced”. Further, under “pre-incubation with fraction B (FIG. 14)”, the “Effect of pre-incubation on anti-apoptotic activity” value is listed as “enhanced”. Further, the “Anti-apoptotic activity (in words)” value (substance or fraction alone) is given as “no anti-apoptotic activity”.

In the case of `CCCCCCCC/C=C\CCCCCCCC(=O)OC[C@H](COP(=O)(O)O)OC(=O)CCCCCCC/C=C\CCCCCCCC` (stereo in doubt) [L-a-phosphatidic acid, dioleoyl (C18:1, [cis]-9)], the “ACTIVITY (anti-apoptotic activity of known phospholipids)” value was found to be 0.

Turning to L-a-phosphatidyl inositol, the “ACTIVITY (anti-apoptotic activity of known phospholipids)” value worked out at 0.

As for “L-a-phosphatidyl ethanolamine [L-a-phosphatidyl ethanolamine, Type IV]”, the “ACTIVITY (anti-apoptotic activity of known phospholipids)” value is given as 0.
